Experimental data taken from US8633315B2, “Substituted hydroxyethyl amine compounds as beta-secretase modulators and methods of use” (Amgen Inc., priority 2007, dated 2014).
Like-named read-outs stand apart in the source and are kept apart here.

Columns and labels:
BACE1 = BACE1 (Homo sapiens, UniProt P56817); assay: In vitro enzymatic BACE FRET (fluorescence resonance energy transfer) assay; assay type: biochemical
Summary of the method: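 Cleavage of a quenched peptide FRET substrate (50 nM) in 0.05 M acetate pH 4.2, 10% DMSO, 100 uM genapol, 1 h incubation. Reaction stopped by Tris neutralization; fluorescence read at excitation 488 nm / […].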

[1] = tested on: Cells stably expressing Amyloid Precursor Protein (APP); assay: In vitro BACE cell-based assay (HEK cell assay): Aβ40 in conditioned medium by sandwich ELISA; settings: Homo sapiens
Summary of the method: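 APP-stably-expressing cells were grown 24 h in DMEM/10% FBS, then treated for 24 h with 10-point doses starting at 100 μM or 10 μM, at 0.1% DMSO final. Aβ40 in conditioned medium was measured by sandwich ELISA (pAb40 capture, biotinylated 6E10 detection, europium time-resolved fluorescence); IC50 from percent inhibition.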

[2] = Microsomal stability assay, human liver microsomes; assay type: in vitro ADME
Text: (§1) Microsomal Stability Assay

[3] = Microsomal stability assay, rat liver microsomes; assay type: in vitro ADME
Text: as §1

CYP3A4 (CYP3A) = CYP3A4 (CYP3A) (Homo sapiens, UniProt P08684); assay: CYP3A inhibition assay (midazolam, pooled human liver microsomes); assay type: in vitro ADME; settings: human, pooled human liver microsomes, pH 7.4, probe midazolam (printed as about […]); read-out: 3A4 IC50
[4] = HEK293, 24 h, Aβ40 in conditioned medium after 24 h incubation

BACE1, sequence (P56817 46-501, species assumed): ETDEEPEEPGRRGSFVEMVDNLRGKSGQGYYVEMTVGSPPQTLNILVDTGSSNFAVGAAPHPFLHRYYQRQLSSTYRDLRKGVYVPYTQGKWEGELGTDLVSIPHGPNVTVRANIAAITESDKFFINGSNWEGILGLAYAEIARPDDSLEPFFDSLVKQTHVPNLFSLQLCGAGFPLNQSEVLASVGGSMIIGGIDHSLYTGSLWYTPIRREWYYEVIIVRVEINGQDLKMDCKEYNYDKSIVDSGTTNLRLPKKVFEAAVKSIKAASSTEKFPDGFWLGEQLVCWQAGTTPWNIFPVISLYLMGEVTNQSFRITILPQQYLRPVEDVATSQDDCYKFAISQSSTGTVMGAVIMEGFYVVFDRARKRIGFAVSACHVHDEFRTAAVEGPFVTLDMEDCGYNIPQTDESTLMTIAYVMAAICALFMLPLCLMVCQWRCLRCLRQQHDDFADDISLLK
CYP3A4 (CYP3A), sequence (P08684 2-503): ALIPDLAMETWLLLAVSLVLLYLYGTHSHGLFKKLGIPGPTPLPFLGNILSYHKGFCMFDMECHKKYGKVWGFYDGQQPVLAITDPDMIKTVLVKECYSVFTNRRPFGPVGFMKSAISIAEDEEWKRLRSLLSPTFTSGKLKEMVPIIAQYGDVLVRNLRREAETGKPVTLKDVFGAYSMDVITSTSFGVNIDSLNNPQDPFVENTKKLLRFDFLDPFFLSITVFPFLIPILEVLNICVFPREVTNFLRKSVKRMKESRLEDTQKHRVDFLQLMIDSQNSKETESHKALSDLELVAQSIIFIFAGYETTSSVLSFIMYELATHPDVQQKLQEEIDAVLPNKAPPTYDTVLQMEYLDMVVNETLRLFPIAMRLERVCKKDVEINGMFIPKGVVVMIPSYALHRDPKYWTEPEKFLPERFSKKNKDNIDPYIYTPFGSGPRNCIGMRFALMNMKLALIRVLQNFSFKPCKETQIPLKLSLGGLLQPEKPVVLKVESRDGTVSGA

Molecule `C=CCC(NC(=O)C1CN(C(C)=O)CCO1)C(O)CNC1CC2(CCC2)Oc2ncc(CC(C)(C)C)cc21` [Example 155, (2R)-4-acetyl-N-((1S)-1-((1R)-2-(((4′S)-6′-(2,2-dimethylpropyl)-3′,4′-dihydrospiro[cyclobutane-1,2′-pyrano[2,3-b]pyridin]-4′-yl)amino)-1-hydroxyethyl)-3-buten-1-yl)-2-morpholinecarboxamide; (2S)-4-acetyl-N-((1S)-1-((1R)-2-(((4′S)-6′-(2,2-dimethylpropyl)-3′,4′-dihydrospiro[cyclobutane-1,2′-pyrano[2,3-b]pyridin]-4′-yl)amino)-1-hydroxyethyl)-3-buten-1-yl)-2-morpholinecarboxamide] has an IC50 (BACE1) of 49 nM and an IC50 [1, 4] of 60 nM.

For `C=CCC(NC(=O)C1CN(C(=O)C(C)C)CCO1)C(O)CNC1CC2(CCC2)Oc2ncc(CC(C)(C)C)cc21` (centres unmarked) [Example 156], the IC50 (BACE1) was 28 nM and the IC50 [1, 4] was 33 nM.

Molecule `C=CC[C@H](NC(=O)COC)[C@H](O)CN[C@H]1CC2(CCC2)Oc2c1cc(CC(C)(C)C)cc2-n1ccnc1` [Example 216, N-((1S)-1-((1R)-2-(((4S)-6-(2,2-dimethylpropyl)-8-(1H-imidazol-1-yl)-3,4-dihydrospiro[chromene-2,1′-cyclobutan]-4-yl)amino)-1-hydroxyethyl)-3-buten-1-yl)-2-methoxyacetamide] has an HLM [2] of 49 µL/min/mg, an RLM [3] of 150 µL/min/mg and an IC50 (BACE1; read-out: BACE 1 FRET assay) of 442 nM. For the same molecule, the IC50 ([1]; HEK293) was 328 nM and the IC50 at 10 min (CYP3A4 (CYP3A)) was 200 nM.

`C#CC[C@H](NC(C)=O)[C@H](O)CNC1CC2(CCC2)Oc2c1cc(CC(C)(C)C)nc2NC` (some centres unmarked) [Example 221] showed an HLM [2] of 61 µL/min/mg, an RLM [3] of 106 µL/min/mg and an IC50 (BACE1; read-out: BACE 1 FRET assay) of 78 nM. It also gave an IC50 ([1]; HEK293) of 58 nM and an IC50 at 10 min (CYP3A4 (CYP3A)) of 1900 nM.

With `C=CC[C@H](NC(=O)[C@@H](C)OC)[C@H](O)CN[C@H]1CC2(CCC2)Oc2c1cc(CC(C)C)cc2-n1ccnc1` [compound 208, (2R)-N-((1S)-1-((1R)-1-hydroxy-2-(((4S)-8-(1H-imidazol-1-yl)-6-(2-methylpropyl)-3,4-dihydrospiro[chromene-2,1′-cyclobutan]-4-yl)amino)ethyl)-3-buten-1-yl)-2-methoxypropanamide] the HLM [2] was 40.5 µL/min/mg, the RLM [3] was 337 µL/min/mg and the IC50 (BACE1; read-out: BACE 1 FRET assay) was 477 nM. The IC50 ([1]; HEK293) was 416 nM and the IC50 at 10 min (CYP3A4 (CYP3A)) was 200 nM.

With `C=CC[C@H](NC(=O)COC)[C@H](O)CN[C@H]1CC2(CCC2)Oc2c1cc(CC(C)C)cc2-n1ccnc1` [compound 209] the HLM [2] was 31 µL/min/mg, the RLM [3] was 183 µL/min/mg and the IC50 (BACE1; read-out: BACE 1 FRET assay) was 338 nM. It also gave an IC50 ([1]; HEK293) of 328 nM and an IC50 at 10 min (CYP3A4 (CYP3A)) of 100 nM.

`C=CC[C@H](NC(=O)[C@@H](C)OC)[C@H](O)CN[C@H]1CC2(CCC2)Oc2c(-c3nccs3)cc(CC(C)C)cc21` [compound 210] gave an HLM [2] of 829 µL/min/mg, an RLM [3] of 644 µL/min/mg and an IC50 (BACE1; read-out: BACE 1 FRET assay) of 92 nM. It also gave an IC50 ([1]; HEK293) of 1110 nM and an IC50 at 10 min (CYP3A4 (CYP3A)) of 200 nM.

`C=CC[C@H](NC(=O)[C@H]1CCC(=O)O1)[C@H](O)CN[C@H]1CC2(CCC2)Oc2ncc(CC(C)(C)C)cc21` [compound 211] gave an HLM [2] of 104 µL/min/mg, an RLM [3] of 137 µL/min/mg and an IC50 (BACE1; read-out: BACE 1 FRET assay) of 15 nM. It also gave an IC50 ([1]; HEK293) of 57 nM and an IC50 at 10 min (CYP3A4 (CYP3A)) of 1300 nM.

In the case of `CCC[C@H](NC(=O)[C@@H]1CCCO1)[C@H](O)CN[C@H]1CC2(CCC2)Oc2c1cc(CC(C)(C)C)nc2Cl` [compound 224, (2S)-N-((1S)-1-((1R)-2-(((4′S)-8′-chloro-6′-(2,2-dimethylpropyl)-3′,4′-dihydrospiro[cyclobutane-1,2′-pyrano[2,3-c]pyridin]-4′-yl)amino)-1-hydroxyethyl)butyl)tetrahydro-2-furancarboxamide], the IC50 (BACE1; read-out: BACE 1 FRET assay) is reported as 533 nM and the IC50 ([1]; HEK293) is reported as 2840 nM.

With `C=CC[C@H](NC(=O)C1COC(c2ccccn2)O1)[C@H](O)CNC1CC2(CCC2)Oc2ncc(CC(C)(C)C)cc21` (stereo partly drawn) [compound 242, N-((1S)-1-((1R)-2-((6′-(2,2-dimethylpropyl)-3′,4′-dihydrospiro[cyclobutane-1,2′-pyrano[2,3-b]pyridin]-4′-yl)amino)-1-hydroxyethyl)-3-buten-1-yl)-2-(2-pyridinyl)-1,3-dioxolane-4-carboxamide] the IC50 (BACE1; read-out: BACE 1 FRET assay) was 3830 nM and the IC50 ([1]; HEK293) was 691 nM.
